Source: PubChem BioAssay AID328 (DTP/NCI, 2004)
Several values for one entry are separate records, joined by “and”; a condition that tells them apart may be missing. Equal entries are not always repeated. Toxic doses and inconclusive results are not listed.

Tested on: BDF1 mice, P388 leukemia ip, median survival T/C
Assay: NCI In Vivo Anticancer Drug Screen. Data for tumor model P388 Leukemia (intraperitoneal) in B6D2F1 (BDF1) mice
Conditions: endpoint: median survival time, higher = longer survival
Method in brief: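 Compound-treated tumour-bearing mice were compared with vehicle-treated controls. Survival was recorded, and the value is the treated-group measurement divided by the control-group measurement (T/C).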

[1] = dose: 50.0 mg/kg/injection, schedule: Q01DX009 (ip), vehicle: saline
[2] = dose: 100.0 mg/kg/injection, schedule: Q01DX009 (ip), vehicle: saline
[3] = dose: 200.0 mg/kg/injection, schedule: Q01DX009 (ip), vehicle: saline
[4] = dose: 100.0 mg/kg/injection, schedule: Q04DX003 (ip), vehicle: saline

Q: `CC12CCC3(CC1CCC(OC(=O)c1ccccc1)C2)OCCO3` (stereo not drawn) was tested. Which T/C (dose: 22.0 mg/kg/injection, schedule: Q01DX009 (ip), vehicle: other) did it give?
A: 109 % of control

Q: What about the T/C (dose: 33.0 mg/kg/injection, schedule: Q01DX009 (ip), vehicle: other) of the same molecule?
A: 109 % of control

Q: What about the T/C (dose: 44.0 mg/kg/injection, schedule: Q04DX003 (ip), vehicle: other) of the same molecule?
A: 100 % of control

Q: What about the T/C (dose: 50.0 mg/kg/injection, schedule: Q01DX009 (ip), vehicle: other) of the same molecule?
A: 109 % of control

Q: What about the T/C (dose: 66.0 mg/kg/injection, schedule: Q04DX003 (ip), vehicle: other) of the same molecule?
A: 109 % of control

Q: And the T/C (dose: 75.0 mg/kg/injection, schedule: Q01DX009 (ip), vehicle: other)?
A: 109 % of control

Q: And the T/C (dose: 100.0 mg/kg/injection, schedule: Q04DX003 (ip), vehicle: other)?
A: 100 % of control

Q: What about the T/C (dose: 150.0 mg/kg/injection, schedule: Q04DX003 (ip), vehicle: other) of the same molecule?
A: 100 % of control

Q: And the T/C (dose: 200.0 mg/kg/injection, schedule: Q01DX009 (ip), vehicle: other)?
A: 109 % of control

Q: And the T/C (dose: 200.0 mg/kg/injection, schedule: Q04DX003 (ip), vehicle: other)?
A: 109 % of control

Q: What about the T/C (dose: 400.0 mg/kg/injection, schedule: Q01DX009 (ip), vehicle: other) of the same molecule?
A: 104 % of control

Q: And the T/C (dose: 400.0 mg/kg/injection, schedule: Q04DX003 (ip), vehicle: other)?
A: 109 % of control

Q: How did the T/C (dose: 50.0 mg/kg/injection, schedule: Q01DX009 (ip), vehicle: saline + alcohol) turn out when `FC(F)(F)c1cccc(C=Nc2ccc(Oc3ccccc3)cc2)c1` was run?
A: 97 % of control

Q: And the T/C (dose: 100.0 mg/kg/injection, schedule: Q01DX009 (ip), vehicle: saline + alcohol)?
A: 91 % of control

Q: And the T/C (dose: 200.0 mg/kg/injection, schedule: Q01DX009 (ip), vehicle: saline + alcohol)?
A: 100 % of control

Q: How did the T/C (dose: 265.0 mg/kg/injection, schedule: Q01DX001 (ip), vehicle: saline) turn out when `O=S(=O)(O)CCBr` was run?
A: 90 % of control

Q: And the T/C (dose: 267.0 mg/kg/injection, schedule: Q01DX001 (ip), vehicle: saline)?
A: 100 % of control

Q: And the T/C (dose: 400.0 mg/kg/injection, schedule: Q01DX001 (ip), vehicle: saline)?
A: 86 % of control and 90 % of control

Q: Which results are given for `CC[N+]1(CC)CC[N+]2(CC1)CC[N+]1(CC[N+](CC)(CC)CC1)CC2`?
A: T/C [1]: 101 % of control; T/C [2]: 101 % of control; T/C [3]: 106 % of control

Q: What does the source list for `CC[C@@]12CCCN3CC[C@]4(c5cccc(OC)c5N(C(C)=O)[C@@H]4CC1)[C@H]32`?
A: T/C (dose: 6.25 mg/kg/injection, schedule: Q01DX009 (ip), vehicle: Klucel (hydroxypropylcellulose) (HPC)): 100 % of control; T/C (dose: 12.5 mg/kg/injection, schedule: Q01DX009 (ip), vehicle: Klucel (hydroxypropylcellulose) (HPC)): 95 % of control; T/C (dose: 25.0 mg/kg/injection, schedule: Q01DX009 (ip), vehicle: Klucel (hydroxypropylcellulose) (HPC)): 104 % of control; T/C (dose: 50.0 mg/kg/injection, schedule: Q01DX001 (ip), vehicle: Klucel (hydroxypropylcellulose) (HPC)): 108 % of control; T/C (dose: 100.0 mg/kg/injection, schedule: Q01DX001 (ip), vehicle: Klucel (hydroxypropylcellulose) (HPC)): 116 % of control; T/C (dose: 200.0 mg/kg/injection, schedule: Q01DX001 (ip), vehicle: Klucel (hydroxypropylcellulose) (HPC)): 91 % of control

Q: For `COc1cc2ccncc2cc1O`, which T/C (dose: 3.13 mg/kg/injection, schedule: Q04DX003 (ip), vehicle: water) is on record?
A: 97 % of control

Q: And the T/C (dose: 6.25 mg/kg/injection, schedule: Q04DX003 (ip), vehicle: water)?
A: 97 % of control

Q: And the T/C (dose: 12.5 mg/kg/injection, schedule: Q04DX003 (ip), vehicle: water)?
A: 94 % of control

Q: And the T/C (dose: 25.0 mg/kg/injection, schedule: Q04DX003 (ip), vehicle: water)?
A: 94 % of control

Q: And the T/C (dose: 50.0 mg/kg/injection, schedule: Q04DX003 (ip), vehicle: water)?
A: 101 % of control

Q: `O=C(O)c1cc(B(O)O)[nH]n1` was tested. Which T/C (dose: 50.0 mg/kg/injection, schedule: Q01DX001 (ip), vehicle: saline sonified) did it give?
A: 104 % of control

Q: And the T/C (dose: 100.0 mg/kg/injection, schedule: Q01DX001 (ip), vehicle: saline sonified)?
A: 100 % of control

Q: And the T/C (dose: 200.0 mg/kg/injection, schedule: Q01DX001 (ip), vehicle: saline sonified)?
A: 100 % of control

Q: What does the source list for `O=c1[nH]c(=O)n(C2CC(O)C(CO)O2)cc1F` (stereo not drawn)?
A: T/C (dose: 5.0 mg/kg/injection, schedule: Q01DX010 (ip), vehicle: saline): 113 % of control; T/C (dose: 15.0 mg/kg/injection, schedule: Q03HX024 (ip), vehicle: saline): 172 % of control; T/C (dose: 22.0 mg/kg/injection, schedule: Q03HX024 (ip), vehicle: saline): 186 % of control; T/C (dose: 25.0 mg/kg/injection, schedule: Q01DX009 (ip), vehicle: saline): 186 % of control; T/C (dose: 33.0 mg/kg/injection, schedule: Q01DX009 (ip), vehicle: saline): 173 % of control; T/C (dose: 34.0 mg/kg/injection, schedule: Q03HX024 (ip), vehicle: saline): 200 % of control; T/C (dose: 40.0 mg/kg/injection, schedule: Q01DX009 (ip), vehicle: water): 168 % of control and 172 % of control and 200 % of control; T/C (dose: 44.0 mg/kg/injection, schedule: Q01DX009 (ip), vehicle: saline): 166 % of control; T/C (dose: 49.0 mg/kg/injection, schedule: Q01DX009 (ip), vehicle: saline): 202 % of control; T/C [1]: 218 % of control; T/C (dose: 50.0 mg/kg/injection, schedule: Q03HX024 (ip), vehicle: saline): 215 % of control; T/C (dose: 60.0 mg/kg/injection, schedule: Q01DX009 (ip), vehicle: water): 190 % of control (2×) and 195 % of control; T/C (dose: 67.0 mg/kg/injection, schedule: Q01DX009 (ip), vehicle: saline): 185 % of control; T/C (dose: 73.0 mg/kg/injection, schedule: Q01DX009 (ip), vehicle: saline): 202 % of control; T/C (dose: 74.0 mg/kg/injection, schedule: Q01DX009 (ip), vehicle: saline): 169 % of control and 183 % of control and 186 % of control; T/C (dose: 80.0 mg/kg/injection, schedule: Q01DX009 (ip), vehicle: water): 190 % of control and 200 % of control and 222 % of control; T/C [2]: 109 % of control and 206 % of control; T/C (dose: 155.0 mg/kg/injection, schedule: Q04DX004 (ip), vehicle: saline): 157 % of control; T/C (dose: 165.0 mg/kg/injection, schedule: Q01DX009 (ip), vehicle: saline): 109 % of control; T/C (dose: 205.0 mg/kg/injection, schedule: Q01DX001 (ip), vehicle: saline): 124 % of control; T/C (dose: 233.0 mg/kg/injection, schedule: Q04DX004 (ip), vehicle: saline): 170 % of control; T/C (dose: 350.0 mg/kg/injection, schedule: Q04DX004 (ip), vehicle: saline): 190 % of control; T/C (dose: 525.0 mg/kg/injection, schedule: Q04DX004 (ip), vehicle: saline): 110 % of control; T/C (dose: 685.0 mg/kg/injection, schedule: Q01DX001 (ip), vehicle: saline): 157 % of control; T/C (dose: 1025.0 mg/kg/injection, schedule: Q01DX001 (ip), vehicle: saline): 172 % of control

Q: How did the T/C [2] turn out when `Nc1nc(N)c2cc(CNc3ccc(Cl)c(C(=O)NC(CC(=O)O)C(=O)O)c3)cnc2n1` (stereo not drawn) was run?
A: 100 % of control

Q: What about the T/C [4] of the same molecule?
A: 102 % of control

Q: And the T/C [3]?
A: 100 % of control

Q: What about the T/C (dose: 200.0 mg/kg/injection, schedule: Q04DX003 (ip), vehicle: saline) of the same molecule?
A: 99 % of control

Q: What about the T/C (dose: 400.0 mg/kg/injection, schedule: Q01DX009 (ip), vehicle: saline) of the same molecule?
A: 108 % of control

Q: What about the T/C (dose: 400.0 mg/kg/injection, schedule: Q04DX003 (ip), vehicle: saline) of the same molecule?
A: 94 % of control

Q: What does the source list for `CCN(CC)P(Cl)(C1=C(Cl)C(=O)C(C#N)=C(C#N)C1=O)(N(CC)CC)N(CC)CC`?
A: T/C (dose: 25.0 mg/kg/injection, schedule: Q01DX001 (ip), vehicle: saline with Tween-80): 97 % of control; T/C (dose: 50.0 mg/kg/injection, schedule: Q01DX001 (ip), vehicle: saline with Tween-80): 95 % of control; T/C (dose: 100.0 mg/kg/injection, schedule: Q01DX001 (ip), vehicle: saline with Tween-80): 95 % of control

Q: For `O=c1[nH]c(=O)n(O)c2nc[nH]c12`, which T/C (dose: 25.0 mg/kg/injection, schedule: Q04DX003 (ip), vehicle: saline) is on record?
A: 100 % of control

Q: And the T/C (dose: 37.5 mg/kg/injection, schedule: Q01DX001 (ip), vehicle: saline)?
A: 100 % of control

Q: And the T/C (dose: 50.0 mg/kg/injection, schedule: Q04DX003 (ip), vehicle: saline)?
A: 100 % of control

Q: What about the T/C (dose: 75.0 mg/kg/injection, schedule: Q01DX001 (ip), vehicle: saline) of the same molecule?
A: 109 % of control

Q: What about the T/C (dose: 75.0 mg/kg/injection, schedule: Q01DX009 (ip), vehicle: saline) of the same molecule?
A: 90 % of control

Q: What about the T/C [4] of the same molecule?
A: 118 % of control

Q: With `CCCCCCCCOB(OCCCCCCCC)OCCCCCCCC` as the molecule, how does the T/C (dose: 25.0 mg/kg/injection, schedule: Q04DX003 (ip), vehicle: saline with Tween-80) read?
A: 91 % of control

Q: What about the T/C (dose: 50.0 mg/kg/injection, schedule: Q04DX003 (ip), vehicle: saline with Tween-80) of the same molecule?
A: 100 % of control

Q: And the T/C (dose: 100.0 mg/kg/injection, schedule: Q04DX003 (ip), vehicle: saline with Tween-80)?
A: 91 % of control and 100 % of control
